Reference: patent publication US7244738B2, “Arylamine-substituted quinazolinone compounds useful as alpha 1A/B adrenergic receptor antagonists” (Roche Palo Alto LLC, priority 2003, dated 2007)

First: CNc1cccc(CN(C)c2nc(=O)c3c(C)c(OC)c(OC)cc3[nH]2)c1 [Example 102, 6,7-Dimethoxy-5-methyl-2-[methyl-(3-methylamino-benzyl)-amino]-1H-quinazolin-4-one]
Second: COc1cc2[nH]c(N(C)Cc3cccc(O)c3)nc(=O)c2c(C)c1OC [Example 154, 2-[(3-Hydroxy-benzyl)-methyl-amino]-6,7-dimethoxy-5-methyl-1H-quinazolin-4-one]
The melting point of the first is lower: 195.9 to 197.9 °C for the first, 252.9 to 254.35 °C for the second.

Compared with `COc1cc2[nH]c(N(C)Cc3cccc(N)c3)nc(=O)c2c(OC)c1OC` [Example 103, 2-[(3-Amino-benzyl)-methyl-amino]-5,6,7-trimethoxy-1H-quinazolin-4-one], `COc1cc2[nH]c(N(C)Cc3cccc(O)c3)nc(=O)c2c(OC)c1OC` [Example 155, 2-[(3-Hydroxy-benzyl)-methyl-amino]-5,6,7-trimethoxy-1H-quinazolin-4-one] is lower in melting point: 225 to 226.5 °C for the first, 212.3 to 215.1 °C for the second.

First: COc1cc2[nH]c(N(C)Cc3cccc(CC#N)c3)nc(=O)c2c(OC)c1OC [Example 107, (3-{[Methyl-(5,6,7-trimethoxy-4-oxo-1,4-dihydro-quinazloin-2-yl)-amino]-methyl}-phenyl)-acetonitrile]
Second: CNCc1cccc(CN(C)c2nc(=O)c3c(OC)c(OC)c(OC)cc3[nH]2)c1 [Example 111, 5,6,7-Trimethoxy-2-[methyl-(3-methylaminomethyl-benzyl)-amino]-1H-quinazolin-4-one]
The melting point of the first is higher: 149.5 to 153.3 °C for the first, 124.9 to 127.6 °C for the second.

Compared with `COc1cc2[nH]c(N(C)Cc3cccc(CN4CCOCC4)c3)nc(=O)c2c(OC)c1OC` [Example 110, 5,6,7-Trimethoxy-2-[methyl-(3-morpholin-4-ylmethyl-benzyl)-amino]-1H-quinazolin-4-one], `COc1cc2[nH]c(N(C)Cc3cccc(CN4CCCC4)c3)nc(=O)c2c(C)c1OC` [Example 122, 6,7-Dimethoxy-5-methyl-2-[methyl-(3-pyrrolidin-1-ylmethyl-benzyl)-amino]-1H-quinazolin-4-one] is higher in melting point: 160 to 162.1 °C for the first, 163.9 to 164.5 °C for the second.

Compared with `CCNCc1cccc(CN(C)c2nc(=O)c3c(C)c(OC)c(OC)cc3[nH]2)c1` [Example 113, 2-[(3-Ethylaminomethyl-benzyl)-methyl-amino]-6,7-dimethoxy-5-methyl-1H-quinazolin-4-one], `CCNCCOc1cccc(CN(C)c2nc(=O)c3c(C)c(OC)c(OC)cc3[nH]2)c1` [Example 165, 2-{[3-(2-Ethylamino-ethoxy)-benzyl]-methyl-amino}-6,7-dimethoxy-5-methyl-1H-quinazolin-4-one] is higher in melting point: 158.2 to 158.9 °C for the first, 264.6 to 266.5 °C for the second.

Compared with `CCN(C)Cc1cccc(CN(C)c2nc(=O)c3c(OC)c(OC)c(OC)cc3[nH]2)c1` [Example 114, 2-({3-[(Ethyl-methyl-amino)-methyl]-benzyl}-methyl-amino)-5,6,7-trimethoxy-1H-quinazolin-4-one], `COCC(=O)N(C)Cc1cccc(CN(C)c2nc(=O)c3c(OC)c(OC)c(OC)cc3[nH]2)c1` [Example 120, 2-Methoxy-N-methyl-N-(3-{[methyl-(5,6,7-trimethoxy-4-oxo-1,4-dihydro-quinazolin-2-yl)-amino]-methyl}-benzyl)-acetamide] is higher in melting point: 106.5 to 108.9 °C for the first, 115 to 117 °C for the second.

Compared with `COCC(=O)N(C)Cc1cccc(CN(C)c2nc(=O)c3c(C)c(OC)c(OC)cc3[nH]2)c1` [Example 119, N-(3-{[(6,7-Dimethoxy-5-methyl-4-oxo-1,4-dihydro-quinazolin-2-yl)-methyl-amino]-methyl}-benzyl)-2-methoxy-N-methyl-acetamide], `CCN(CCOC)Cc1cccc(CN(C)c2nc(=O)c3c(C)c(OC)c(OC)cc3[nH]2)c1` [Example 121, 2-[(3-{[Ethyl(2-methoxy-ethyl)-amino]-methyl}-benzyl)-methyl-azmino]-6,7-dimethoxy-5-methyl-1H-quinazolin-4-one] is lower in melting point: 150 to 151.2 °C for the first, 121.8 to 122.3 °C for the second.

First: COc1cc2[nH]c(N(C)Cc3cccc(S(C)(=O)=O)c3)nc(=O)c2c(C)c1OC [Example 128, 2-[(3-Methanesulfonyl-benzyl)-methyl-amino]-6,7-dimethoxy-5-methyl-1H-quinazolin-4-one]
Second: COc1cc2[nH]c(N(C)Cc3cccc(S(C)(=O)=O)c3)nc(=O)c2c(OC)c1OC [Example 129, 2-[(3-Methanesulfonyl-benzyl)-methyl-amino]-5,6,7-trimethoxy-1H-quinazolin-4-one]
The melting point of the first is higher: 269.5 to 271.5 °C for the first, 231.5 to 232.9 °C for the second.

First: COc1cc2[nH]c(N(C)Cc3cccc(S(=O)(=O)N(C)C)c3)nc(=O)c2c(OC)c1OC [Example 130]
Second: COc1cc2[nH]c(N(C)Cc3cccc(NS(=O)(=O)N(C)C)c3)nc(=O)c2c(OC)c1OC [Example 171, N,N-Dimethyl-N′-(3-{[methyl-(5,6,7-trimethoxy-4-oxo-1,4-dihydro-quinazolin-2-yl)-amino]-methyl}-phenyl)-sulfamide]
The melting point of the first is higher: 199.9 to 204 °C for the first, 176.5 to 179.7 °C for the second.

First: COCCNS(=O)(=O)c1cccc(CN(C)c2nc(=O)c3c(C)c(OC)c(OC)cc3[nH]2)c1 [Example 131, 3-{[(6,7-Dimethoxy-5-methyl-4-oxo-1,4-dihydro-quinazolin-2-yl)-methyl-amino]-methyl}-N-(2-methoxy-ethyl)-benzenesulfonamide]
Second: COCCNS(=O)(=O)c1cccc(CN(C)c2nc(=O)c3c(OC)c(OC)c(OC)cc3[nH]2)c1 [Example 132, N-(2-Methoxy-ethyl)-3-{[methyl-(5,6,7-trimethoxy-4-oxo-1,4-dihydro-quinazolin-2-yl)-amino]-methyl}-benzenesulfonamide]
The melting point of the first is lower: 163 to 164.9 °C for the first, 176.9 to 179.1 °C for the second.

First: COc1cc2[nH]c(N(C)Cc3cccc(C(=O)O)c3)nc(=O)c2c(C)c1OC [Example 134, 3-{[(6,7-Dimethoxy-5-methyl-4-oxo-1,4-dihydro-quinazolin-2-yl)-methyl-amino]-methyl}-benzoic acid]
Second: CNC(=O)c1cccc(CN(C)c2nc(=O)c3c(C)c(OC)c(OC)cc3[nH]2)c1 [Example 136, 3-{[(6,7-Dimethoxy-5-methyl-44-oxo-1,4-dihydro-quinazolin-2-yl)-methyl-amino]-methyl}-N-methyl-benzamide]
The melting point of the first is higher: 283.1 to 286.2 °C for the first, 243.3 to 245.1 °C for the second.

First: CNC(=O)c1cccc(CN(C)c2nc(=O)c3c(OC)c(OC)c(OC)cc3[nH]2)c1 [Example 137, N-Methyl-3-{[methyl-(5,6,7-trimethoxy-4-oxo-1,4-dihydro-quinazolin-2-yl)-amino]-methyl}-benzamide]
Second: COC(=O)Nc1cccc(CN(C)c2nc(=O)c3c(OC)c(OC)c(OC)cc3[nH]2)c1 [Example 177, (3-{[Methyl-(5,6,7-trimethoxy-4-oxo-1,4-dihydro-quinazolin-2-yl)-amino]-methyl}-phenyl)-carbamic acid methylester]
The melting point of the first is lower: 217.9 to 219.1 °C for the first, 230.9 to 232.1 °C for the second.

First: COCCOc1cccc(CN(C)c2nc(=O)c3c(C)c(OC)c(OC)cc3[nH]2)c1 [Example 160, 6,7-Dimethoxy-2-{[3-(2-methoxy-ethoxy)-benzyl]-methyl-amino}-5-methyl-1H-quinazolin-4-one]
Second: COCCCOc1cccc(CN(C)c2nc(=O)c3c(C)c(OC)c(OC)cc3[nH]2)c1 [Example 162, 6,7-Dimethoxy-2-{[3-(3-methoxy-propoxy)-benzyl]-methyl-amino}-5-methyl-1H-quinazolin-4-one]
The melting point of the first is higher: 176.6 to 177.9 °C for the first, 150.1 to 152 °C for the second.

First: COc1cc2[nH]c(N(C)Cc3cccc(OCCN(C)C)c3)nc(=O)c2c(C)c1OC [Example 164, 2-{[3-(2-Dimethylamino-ethoxy)-benzyl]-methyl-amino}-6,7-dimethoxy-5-methyl-1H-quinazolin-4-one]
Second: COc1cc2[nH]c(N(C)Cc3cccc(/N=C(\C)N(C)C)c3)nc(=O)c2c(C)c1OC [Example 167, N′-(3-{[(6,7-Dimethoxy-5-methyl-4-oxo-1,4-dihydro-quinazolin-2-yl)-methyl-amino]-methyl}-phenyl)-N,N-dimethyl-acetamide]
The melting point of the first is lower: 137.9 to 141.9 °C for the first, 174.4 to 174.8 °C for the second.

First: COc1cc2[nH]c(N(C)Cc3cccc(NS(=O)(=O)N(C)C)c3)nc(=O)c2c(C)c1OC [Example 169, N′-(3-{[(6,7-dimethoxy-5-methyl-4-oxo-1,4-dihydro-quinazolin-2-yl)-methyl-amino]-methyl}-phenyl)-N,N-dimethylsulfamide]
Second: COc1cc2[nH]c(N(C)Cc3cccc(NC(=O)N(C)C)c3)nc(=O)c2c(C)c1OC [Example 180, 3-(3-{[(6,7-Dimethoxy-5-methyl-4-oxo-1,4-dihydro-quinazolin-2-yl)-methyl-amino]-methyl}-phenyl)-1,1-dimethyl-urea]
The melting point of the first is higher: 195.3 to 199 °C for the first, 131.5 to 168 °C for the second.

First: COc1cc2[nH]c(N(C)Cc3cccc(N(C)S(=O)(=O)N(C)C)c3)nc(=O)c2c(C)c1OC [Example 170, N-(3-{[(6,7-dimethoxy-5-methyl-4-oxo-1,4-dihydro-quinazolin-2-yl)-methyl-amino]-methyl}-phenyl)-N,N′,N′-trimethylsulfamide]
Second: COc1cc2[nH]c(N(C)Cc3cccc(N(C)S(=O)(=O)N(C)C)c3)nc(=O)c2c(OC)c1OC [Example 172, N,N,N′-Trimethyl-N′-(3-{[methyl-(5,6,7-trimethoxy-4-oxo-1,4-dihydro-quinazolin-2-yl)-amino]-methyl}-phenyl)-sulfamide]
The melting point of the first is lower: 160 to 161.7 °C for the first, 170.3 to 172.3 °C for the second.

For `COC(=O)N(C)c1cccc(CN(C)c2nc(=O)c3c(C)c(OC)c(OC)cc3[nH]2)c1` [Example 178, (3-{[(6,7-Dimethoxy-5-methyl-4-oxo-1,4-dihydro-quinazolin-2-yl)-methyl-amino]-methyl}-phenyl)-methyl-carbamic acid methyl ester], the melting point was 191.9 to 194.1 °C.

With `COc1cc2[nH]c(N(C)Cc3cccc(OCC(=O)O)c3)nc(=O)c2c(C)c1OC` [Example 157, (3-{[(6,7-Dimethoxy-5-methyl-4-oxo-1,4-dihydro-quinazolin-2-yl)-methyl-amino]-methyl}-phenoxy)-acetic acid] the melting point was > 300 °C.
For `COc1cc2[nH]c(N(C)Cc3cccc(OCC(=O)O)c3)nc(=O)c2c(OC)c1OC` [Example 158, (3-{[Methyl-(5,6,7-trimethoxy-4-oxo-1,4-dihydro-quinazolin-2-yl)-amino]-methyl}-phenoxy)-acetic acid], the melting point was > 300 °C.
